Structures are written as SMILES.

The data set in a line: in vitro. The note with it: human, hela cells, % viability.

Take `Nc1ncnc(NCCC(c2ccccc2)c2ccccc2)c1[N+](=O)[O-]` [CBK267294]: the viability at 28.5 h, 10 µM came out at 90.5%. In the case of `Cc1ccc(NC(=O)CSCc2nc3ccccc3[nH]2)cc1` [CBK267299] it was 108%. In the case of `Cc1cc(C)c2c(n1)OC(N1CCOCC1)(C(F)(F)F)CC2=O` (centres unmarked) [CBK267301] it was 79.2%; in that of `O=C(NCc1ccccc1)c1cnsn1` [CBK267302], 90.8%; in that of `COc1cc(OC)c(NC(=O)CSc2ccccn2)cc1Cl` [CBK267303], 92.5%. Under `Nc1nonc1C(=O)NCCNCc1cccs1` [CBK267305] stands 95.2%; under `CC(C)Nc1ccc(S(=O)(=O)N(Cc2ccccc2)Cc2ccccc2)cn1` [CBK267307], 84.6%. In the case of `c1ccc(COC(c2ccccc2)c2nc3ccccc3n2Cc2ccccc2)cc1` (centres unmarked) [CBK267311], the viability at 28.5 h, 10 µM turned out to be 98.2%. With `Nc1ncnc(NCCCn2ccnc2)c1[N+](=O)[O-]` [CBK267312], the viability at 28.5 h, 10 µM amounted to 93.5%.

For the molecule `O=C(CSc1ncn(-c2ccccc2)n1)Nc1ccc(F)c(Cl)c1` [CBK267313], the viability at 28.5 h, 10 µM was found to be 94.4%.

`CCC(Oc1nc2ccccc2nc1-c1ccccc1NC(C)=O)C(=O)c1ccccc1` (centres unmarked) [CBK267315]: the viability at 28.5 h, 10 µM came out at 94.4%. Consider `N#C/C(=C/c1cn(CCC(N)=O)c2ccccc12)c1ccc2c(c1)OCO2` [CBK267319], for which the viability at 28.5 h, 10 µM came out at 90.2%. Under `CN(C)S(=O)(=O)c1ccc(NC(=O)c2ccc(-c3ccccc3)cc2)cc1` [CBK267322] stands 104%. Under `Nc1nc(SCC(=O)N2CCC(c3noc4ccc(F)cc34)CC2)n[nH]1` [CBK267326] stands 91.4%; under `Cc1ccc(C(=O)NCCN2CCOCC2)cc1S(=O)(=O)N1CCCCC1` [CBK267329], 86.2%; under `CCOC(=O)c1ccc(NC(=O)C(C)Sc2nc3ccccc3[nH]2)cc1` (centres unmarked) [CBK267330], 91.8%. Under `O=C(CC1NC(=O)NC1=O)Nc1ccccc1` (centres unmarked) [CBK267331] stands 90.4%. As to `Cc1cccc(NC(=O)c2cc(NC(=O)C3CCCCC3C(=O)O)ccc2N2CCCCC2)c1` (centres unmarked) [CBK267332], the viability at 28.5 h, 10 µM is 97.3%. Under `COc1ccc(S(=O)(=O)N(C)CC(=O)Nc2ccc(S(N)(=O)=O)cc2)cc1C` [CBK267333] stands 93.7%. Under `Cc1ccc(C(=O)O)cc1S(=O)(=O)N(CCO)CCO` [CBK267335] stands 102%; under `CCOc1cc(/C=C/c2nc(O)c([N+](=O)[O-])c(=O)[nH]2)ccc1OCC(N)=O` [CBK267337], 96%; under `CC(=O)Nc1ccc(S(=O)(=O)N2CCN(c3cc4c(cc3[N+](=O)[O-])n(C)c(=O)n4C)CC2)cc1` [CBK267338], 91.9%. Consider `O=C(Cn1c(C(F)(F)F)nc2ccccc21)NCCN1CCOCC1` [CBK267339], for which the viability at 28.5 h, 10 µM was 100%. In the case of `O=[N+]([O-])c1cc(-c2nnc(-c3ccccc3)o2)ccc1-n1c(-c2ccccc2)nnc1-c1ccccc1` [CBK267341] it was 99.2%; in that of `O=C(CN1C(=O)CSc2ccccc21)Nc1ccccc1C(=O)N1CCOCC1` [CBK267343], 104%.

`Nc1ncnc(Nc2ccc(Nc3ccccc3)cc2)c1[N+](=O)[O-]` [CBK267347]: the viability at 28.5 h, 10 µM was determined as 88.9%. In the case of `N=C(N)Nc1nc(-c2ccccc2)c2cc(F)ccc2n1` [CBK267350] it was 82.7%. In the case of `O=C1CC(C(=O)c2ccccc2)NC(N2CCOCC2)=N1` (centres unmarked) [CBK267352] it was 105%; in that of `O=C(CC1NC(=O)NC1=O)Nc1ccc(C(=O)O)cc1` (centres unmarked) [CBK267355], 99.1%; in that of `CC(C)(C)c1ccc(NC(=O)C(=O)NCCCn2ccnc2)cc1` [CBK267358], 108%.

In the case of `Cc1nc(N)sc1-c1nnc(SCC(=O)Nc2ccccc2C(F)(F)F)n1C` [CBK267359], the viability at 28.5 h, 10 µM is 99.5%. In the case of `O=C(CSc1nc[nH]n1)c1ccc2c(c1)OCCO2` [CBK267360] it was 101%. Turning to `O=C(COc1ccc2ccccc2c1Br)NCc1ccccn1` [CBK267361], the viability at 28.5 h, 10 µM is 84.1%. In the case of `CCC(C)Oc1ccccc1OCCN1C(=O)NC(C)(C)C1=O` (centres unmarked) [CBK267362] it was 98.5%; in that of `Cc1ccc(/C(N)=N/OC(=O)CN(C)S(=O)(=O)c2ccc3ccccc3c2)cc1` [CBK267363], 104%. As to `C=CCn1c(SCc2nnc(-c3ccccc3)o2)nnc1C(O)c1ccccc1` (centres unmarked) [CBK267368], the viability at 28.5 h, 10 µM turned out to be 110%.

For the molecule `Cn1c(SCC(=O)n2c3c(c4ccccc42)CCCC3)nnc1-c1ccco1` [CBK267370], the viability at 28.5 h, 10 µM was found to be 99.2%.

For `CC(C)c1ccc(NC(=O)CSc2nnc(Cc3cccc4ccccc34)o2)cc1` [CBK267371], the viability at 28.5 h, 10 µM came to 88.7%. Under `CC(=O)Nc1ccccc1NC(=O)CN(C)S(=O)(=O)c1ccc(Cl)cc1` [CBK267373] stands 93.2%; under `CCN1CCN(CCOc2c(OC)cccc2OC)CC1` [CBK267375G], 96.9%; under `Cc1ccc(S(=O)(=O)Nc2cccc3ccccc23)c([N+](=O)[O-])c1` [CBK267381], 71.9%. Under `O=C(CSc1nnc(Cc2cccc3ccccc23)n1-c1ccccc1)NC1CC1` [CBK267382] stands 86.3%; under `CN(C)S(=O)(=O)c1ccc(C(=O)Nc2ccc(N3CCOCC3)c(Cl)c2)cc1` [CBK267383], 87.7%. On to `CN(CC(=O)NNC(=O)c1cccnc1)S(=O)(=O)c1cc(Cl)ccc1Cl` [CBK267388], for which the viability at 28.5 h, 10 µM came to 92.2%.

On to `O=C(NCCOc1cccc(Cl)c1Cl)c1ccccc1-c1ccccc1` [CBK267390], for which the viability at 28.5 h, 10 µM was found to be 40.6%. In the case of `Cc1ccc(C)c(OCCNS(=O)(=O)c2cc([N+](=O)[O-])ccc2C)c1` [CBK267393] it was 87.1%; in that of `N#Cc1cccc(CSc2nnc(-c3ccccc3O)n2Cc2ccccc2)c1` [CBK267395], 85.8%; in that of `O=C(Nc1ccccc1)c1ccccc1OCc1ccc(S(=O)(=O)N2CCOCC2)cc1` [CBK267396], 92.8%.

Turning to `O=C(O)Cc1ccc(NC(=O)c2cccnc2C(=O)O)cc1` [CBK267397], the viability at 28.5 h, 10 µM came out at 97.2%.

`CCCC(=O)Nc1ccccc1NC(=O)c1cccc([N+](=O)[O-])c1C` [CBK267398]: the viability at 28.5 h, 10 µM turned out to be 92.1%. Turning to `O=C(NNC(=O)c1ccc2c(c1)C(=O)N(Cc1ccco1)C2=O)c1cccnc1` [CBK267403], the viability at 28.5 h, 10 µM came to 91%. Under `CC(C)(c1ccccc1)c1ccc(OCc2ccc(S(=O)(=O)N3CCOCC3)cc2)cc1` [CBK267407] stands 96.8%; under `Nc1nc(CSc2nnc(Cc3ccc([N+](=O)[O-])cc3)n2-c2ccccc2)cs1` [CBK267408], 93.5%; under `CN(CC(=O)NNC(=O)c1cccs1)S(=O)(=O)c1ccc2ccccc2c1` [CBK267409], 90.8%. Under `Cc1ccc(S(=O)(=O)Nc2ccc(S(=O)(=O)Nc3nccs3)cc2)c([N+](=O)[O-])c1` [CBK267410] stands 85.9%; under `O=C(OCc1ccc(S(=O)(=O)N2CCOCC2)cc1)c1cc(-c2ccccc2)nc2ccccc12` [CBK267411], 89.6%.

As a reminder, the viability is a read-out of living cells in per cent, often relative to untreated cells.

These data come from article PMC12040169 (PLOS Biology, 2025).
